Measured values reported in patent US20240218022A1, “ANTI-VISTA MACROCYCLIC PEPTIDES AND COMPOSITIONS” (BRISTOL-MYERS SQUIBB COMPANY, priority 2022, published 2024).
Starred links: 1 amine or outer side, 2 acyl side, 3 side chain; linkers in the order of their positions; H or OH if unused. Positions of bridges follow the written chain, without caps; N, C: chain ends. Non-standard residues stand in square brackets, D forms with d. Residues, ends and D or L forms follow the SMILES beside them. Tyr(3-Cl) = N[C@@H](Cc1ccc(O)c(Cl)c1)C(=O)O; Phe(3-Me) = Cc1cccc(C[C@H](N)C(=O)O)c1; γGlu = O=C(O)[C@H](CCC(=O)[*:2])N[*:1]; 2Nal = N[C@@H](Cc1ccc2ccccc2c1)C(=O)O; βAsp = O=C(O)[C@H](CC(=O)[*:2])N[*:1]; Ahp(2) = CCCCC[C@H](N)C(=O)O; NMeNle = CCCC[C@H](NC)C(=O)O; Tle = CC(C)(C)[C@H](N)C(=O)O; NHexGly = CCCCCCNCC(=O)O; Nle = CCCC[C@H](N)C(=O)O; Orn = NCCC[C@H](N)C(=O)O; Aun = NCCCCCCCCCCC(=O)O; Dab = NCC[C@H](N)C(=O)O; AEEA = NCCOCCOCC(=O)O

Biological target: T1, mouse VISTA (mVISTA) (Mus musculus, UniProt Q9D659)
T1 construct: expressed in transfected cells; host or cells: Human embryonic kidney 293T cells
T1 sequence (Q9D659 33-308): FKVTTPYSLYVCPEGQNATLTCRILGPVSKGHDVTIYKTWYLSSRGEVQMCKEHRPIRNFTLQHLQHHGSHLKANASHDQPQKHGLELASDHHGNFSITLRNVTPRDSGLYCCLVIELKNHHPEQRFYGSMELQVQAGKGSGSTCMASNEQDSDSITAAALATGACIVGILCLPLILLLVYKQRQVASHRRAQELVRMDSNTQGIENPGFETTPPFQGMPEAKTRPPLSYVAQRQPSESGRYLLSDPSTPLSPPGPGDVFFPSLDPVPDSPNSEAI
Experiment: Cell-Based Binding High-Content Assay For mVISTA (HC CBA mVISTA)
Settings: cell-based binding high-content assay; read-out: HC CBA mVISTA IC50
Method in brief: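 Competition of compound with a biotinylated peptide (final 2 nM, 30 min at RT) for binding to mVISTA on 293T cells, run under no-wash or wash (1 h compound preincubation then removal) formats. Readout by Alexa 647–streptavidin imaging on a high-content platform; four-parameter logistic fit gave IC50.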

Row | IC50 [nM] | SMILES
1 | 22.4 | CCCCCCN1CC(=O)N[C@@H](Cc2ccc(O)cc2)C(=O)N[C@@H](CC(C)C)C(=O)N[C@@H](CC(N)=O)C(=O)N[C@@H](CCCNC(=N)N)C(=O)N(C)[C@@H](CCCC)C(=O)N[C@@H](CCCCC)C(=O)N2CCC[C@H]2C(=O)N[C@@H](C(C)(C)C)C(=O)N[C@@H](CC(=O)O)C(=O)N[C@H](C(=O)N[C@@H](CC(=O)NCCOCCOCC(=O)N[C@@H](CCN)C(=O)NCCOCCOCC(=O)NCCCCCCCCCCC(=O)O)C(=O)O)CSCC(=O)N[C@@H](Cc2ccccc2)C(=O)N[C@@H](Cc2ccc(O)cc2)C(=O)N[C@@H](CC(=O)O)C1=O [compound 2329] ({CH2CO}-FYD[NHexGly]YLNR[NMeNle][Ahp(2)]P[Tle]DC[βAsp][AEEA][Dab][AEEA][Aun]-OH; thioether N-14)
2 | 18 | CCCCCCN1CC(=O)N[C@@H](Cc2ccc(O)cc2)C(=O)N[C@@H](CCCC)C(=O)N[C@@H](CC(N)=O)C(=O)N[C@@H](CCCNC(=N)N)C(=O)N(C)[C@@H](CCCC)C(=O)N[C@@H](CCCCC)C(=O)N2CCC[C@H]2C(=O)N[C@@H](C(C)(C)C)C(=O)N[C@@H](CO)C(=O)N[C@H](C(=O)NCC(=O)NCCOCCOCC(=O)N[C@@H](CCC(=O)NCCOCCOCC(=O)NCCCCCCCCCCC(=O)O)C(=O)O)CSCC(=O)N[C@@H](Cc2ccccc2)C(=O)N[C@@H](Cc2cccc(C)c2)C(=O)N[C@@H](CC(=O)O)C1=O [compound 2330] ({CH2CO}-F[Phe(3-Me)]D[NHexGly]Y[Nle]NR[NMeNle][Ahp(2)]P[Tle]SCG[AEEA][γGlu][AEEA][Aun]-OH; thioether N-14)
3 | 46.8 | CCCCCCN1CC(=O)N[C@@H](Cc2ccc(O)cc2)C(=O)N[C@@H](CCCC)C(=O)N[C@@H](CC(N)=O)C(=O)N[C@@H](CCCNC(=N)N)C(=O)N(C)[C@@H](CCCC)C(=O)N[C@@H](CCCCC)C(=O)N2CCC[C@H]2C(=O)N[C@@H](C(C)(C)C)C(=O)N[C@@H](CO)C(=O)N[C@H](C(=O)NCC(=O)NCCOCCOCC(=O)N[C@@H](CCC(=O)NCCOCCOCC(=O)NCCCCCCCCCCC(=O)O)C(=O)O)CSCC(=O)N[C@@H](Cc2ccc3ccccc3c2)C(=O)N[C@@H](Cc2ccc(O)cc2)C(=O)N[C@@H](CC(=O)O)C1=O [compound 2333] ({CH2CO}-[2Nal]YD[NHexGly]Y[Nle]NR[NMeNle][Ahp(2)]P[Tle]SCG[AEEA][γGlu][AEEA][Aun]-OH; thioether N-14)
4 | 24 | CCCCCCN1CC(=O)N[C@@H](Cc2ccc(O)c(Cl)c2)C(=O)N[C@@H](CC(C)C)C(=O)N[C@@H](CC(N)=O)C(=O)N[C@@H](CCCN)C(=O)N(C)[C@@H](CCCC)C(=O)N[C@@H](CCCCC)C(=O)N2CCC[C@H]2C(=O)N[C@@H](C(C)(C)C)C(=O)N[C@@H](CO)C(=O)N[C@H](C(=O)N[C@@H](CC(=O)NCCOCCOCC(=O)N[C@@H](CC(=O)O)C(=O)NCCOCCOCC(=O)NCCCCCCCCCCC(=O)O)C(=O)O)CSCC(=O)N[C@@H](Cc2ccccc2)C(=O)N[C@@H](Cc2ccc(O)cc2)C(=O)N[C@@H](CC(=O)O)C1=O [compound 2336] ({CH2CO}-FYD[NHexGly][Tyr(3-Cl)]LN[Orn][NMeNle][Ahp(2)]P[Tle]SC[βAsp][AEEA]D[AEEA][Aun]-OH; thioether N-14)
